Values of other authors, collected in publication PMC5988656, “Phase I studies of AZD1208, a proviral integration Moloney virus kinase inhibitor in solid and haematological cancers” (British Journal of Cancer, 2018).

Tests used:
[1] = system: relapsed/refractory multiple myeloma (RRMM); conditions: in vivo; cited from earlier work
[2] = system: refractory prostate cancer and relapsed/refractory non-Hodgkin lymphoma; set-up: method as in ClinicalTrials.gov, NCT00848601; conditions: ref ClinicalTrials.gov, NCT00848601; cited from earlier work

Structure (SMILES)	DLT fatigue [1] [n]	DLT hypophosphatemia [1] [n]	DLT thrombocytopenia [1] [n]	DLT vasovagal syncope [1] [n]	DLTs [1]	Outcome of clinical development [2]
C[C@@H]1C[C@H](N)C[C@H](c2ccncc2NC(=O)c2ccc(F)c(-c3c(F)cccc3F)n2)C1 [LGH447]	2	1	4	1	eight	–
CN1CCC(CNc2ccc3ncc(-c4cccc(OC(F)(F)F)c4)n3n2)CC1 [SGI-1776]	–	–	–	–	–	discontinued because of QTc prolongation
